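Compound exposure: 48 hours, 5 concentrations, 96-well plates. TGI marks complete inhibition of growth.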 Where a SMILES comes first, the peptide text is derived from it.
Columns and labels:
Test in all cases: NCI tumour cell line growth inhibition, 48 h
[1] = system: SF-268 CNS
[2] = system: MDA-N
[3] = system: HCT-116 colon
[4] = system: KM12 colon
[5] = system: SF-295 CNS
[6] = system: MCF7 breast
[7] = system: SK-MEL-28 melanoma
[8] = system: OVCAR-8 ovarian
[9] = system: UACC-257 melanoma
[10] = system: SW-620 colon
[11] = system: MDA-MB-231 breast
[12] = system: HOP-62 NSCLC
[13] = system: PC-3 prostate
[14] = system: NCI-H226 lung
[15] = system: HT29 colon
[16] = system: T-47D breast
[17] = system: CCRF-CEM leukemia
[18] = system: NCI-H460 lung
[19] = system: NCI/ADR-RES ovarian
[20] = system: LOX IMVI melanoma
[21] = system: ACHN renal
[22] = system: RPMI-8226 leukemia
[23] = system: SK-MEL-2 melanoma
[24] = system: HL-60(TB) leukemia
[25] = system: CAKI-1 renal
[26] = system: A549 NSCLC
[27] = system: U251 CNS
[28] = system: MDA-MB-435
[29] = system: UACC-62 melanoma
[30] = system: SF-539 CNS
[31] = system: DU-145 prostate
[32] = system: SN12C renal
[33] = system: IGROV1 ovarian
[34] = system: SR leukemia
[35] = system: 786-0 renal
[36] = system: M14 melanoma
[37] = system: SNB-19 CNS
[38] = system: HOP-92 NSCLC
[39] = system: K-562 leukemia
[40] = system: SNB-75 CNS
[41] = system: EKVX NSCLC
[42] = system: SK-MEL-5 melanoma
[43] = system: MOLT-4 leukemia
[44] = system: HS 578T breast
[45] = system: TK-10 renal
[46] = system: NCI-H23 lung
[47] = system: COLO 205 colon
[48] = system: RXF 393 renal
[49] = system: OVCAR-5 ovarian
[50] = system: BT-549 breast
[51] = system: HCT-15 colon
[52] = system: A498 renal
[53] = system: UO-31 renal
[54] = system: OVCAR-3 ovarian
[55] = system: SK-OV-3 ovarian
[56] = system: MALME-3M melanoma
[57] = system: OVCAR-4 ovarian
[58] = system: HCC-2998 colon
[59] = system: NCI-H522 lung

SMILES: CCCCCCCCCCCC[C@@H](O)[C@H]1CC[C@H]([C@H]2CC[C@H]([C@H](O)CC[C@H](O)CCCCCCCC3=C[C@H](C)OC3=O)O2)O1
- TGI [1]: 3.32 µM
- TGI [2]: 4.49 µM
- TGI [3]: 4.42 µM
- TGI [4]: 2.9 µM
- TGI [5]: 3.01 µM
- TGI [6]: 2.72 µM
- TGI [7]: 3.6 µM
- TGI [8]: 4 µM
- TGI [9]: 2.35 µM
- TGI [10]: 5.82 µM
- TGI [11]: 6.36 µM
- TGI [12]: 2.96 µM
- TGI [13]: 2.9 µM
- TGI [14]: 3.48 µM
- TGI [15]: 3.25 µM
- TGI [16]: > 10 µM
- TGI [17]: 4.74 µM
- TGI [18]: 2.82 µM
- TGI [19]: 3.8 µM
- TGI [20]: 2.76 µM
- TGI [21]: 2.45 µM
- TGI [22]: 9.49 µM
- TGI [23]: 2.93 µM
- TGI [24]: 4.17 µM
- TGI [25]: 6.81 µM
- TGI [26]: 4.42 µM
- TGI [27]: 5.32 µM
- TGI [28]: 4.05 µM
- TGI [29]: 2.58 µM
- TGI [30]: 3.12 µM
- TGI [31]: > 10 µM
- TGI [32]: 8.13 µM
- TGI [33]: 3.2 µM
- TGI [34]: > 10 µM
- TGI [35]: 5.66 µM
- TGI [36]: 3.11 µM
- TGI [37]: 2.62 µM
- TGI [38]: 4.23 µM
- TGI [39]: > 10 µM
- TGI [40]: 3.77 µM
- TGI [41]: 2.82 µM
- TGI [42]: 4.48 µM
- TGI [43]: > 10 µM
- TGI [44]: 5.48 µM
- TGI [45]: 2.65 µM
- TGI [46]: 2.31 µM
- TGI [47]: 3.94 µM
- TGI [48]: 5.9 µM
- TGI [49]: 3.25 µM
- TGI [50]: 1.02 µM
- TGI [51]: 4.33 µM
- TGI [52]: 4.94 µM
- TGI [53]: 2.16 µM
- TGI [54]: 2.95 µM

SMILES: O=C(NC(=S)Nc1ccc2c(c1)Sc1ccccc1O2)c1ccccc1
- TGI [1]: > 100 µM
- TGI [2]: > 100 µM
- TGI [3]: > 100 µM
- TGI [4]: > 100 µM
- TGI [5]: 79.4 µM
- TGI [6]: > 100 µM
- TGI [7]: > 100 µM
- TGI [55]: > 100 µM
- TGI [8]: > 100 µM
- TGI [56]: 93.2 µM
- TGI [9]: > 100 µM
- TGI [10]: > 100 µM
- TGI [11]: 57.8 µM
- TGI [12]: > 100 µM
- TGI [57]: 92.3 µM
- TGI [13]: 28.5 µM
- TGI [14]: > 100 µM
- TGI [15]: > 100 µM
- TGI [16]: > 100 µM
- TGI [17]: 95.9 µM
- TGI [18]: > 100 µM
- TGI [19]: > 100 µM
- TGI [20]: > 100 µM
- TGI [21]: > 100 µM
- TGI [22]: > 100 µM
- TGI [23]: 48.8 µM
- TGI [24]: > 100 µM
- TGI [25]: > 100 µM
- TGI [26]: > 100 µM
- TGI [27]: 49.6 µM
- TGI [28]: > 100 µM
- TGI [29]: > 100 µM
- TGI [30]: 64.6 µM
- TGI [31]: > 100 µM
- TGI [58]: 49.2 µM
- TGI [59]: > 100 µM
- TGI [32]: > 100 µM
- TGI [33]: > 100 µM
- TGI [34]: 16.1 µM
- TGI [35]: 48.1 µM
- TGI [36]: > 100 µM
- TGI [37]: > 100 µM
- TGI [38]: 69 µM
- TGI [39]: > 100 µM
- TGI [40]: 40.3 µM
- TGI [41]: > 100 µM
- TGI [42]: > 100 µM
- TGI [43]: > 100 µM
- TGI [44]: > 100 µM
- TGI [45]: 54.3 µM
- TGI [46]: > 100 µM
- TGI [47]: > 100 µM
- TGI [48]: 64.5 µM
- TGI [49]: > 100 µM
- TGI [50]: > 100 µM
- TGI [51]: > 100 µM
- TGI [53]: > 100 µM
- TGI [54]: > 100 µM

SMILES: COc1ccc(C(=O)/C=C/c2ccc(Oc3cc(C(=O)/C=C/c4ccc(O)cc4)c(O)cc3OC)cc2)c(O)c1
- TGI [1]: > 100 µM
- TGI [2]: > 100 µM
- TGI [3]: 3.96 µM
- TGI [4]: 7.83 µM
- TGI [5]: 40.2 µM
- TGI [6]: > 100 µM
- TGI [7]: 8.15 µM
- TGI [55]: 96.4 µM
- TGI [8]: 9.83 µM
- TGI [56]: 59.8 µM
- TGI [9]: > 100 µM
- TGI [10]: > 100 µM
- TGI [11]: 9.8 µM
- TGI [12]: 49.2 µM
- TGI [57]: 18 µM
- TGI [13]: > 100 µM
- TGI [15]: 5.13 µM
- TGI [16]: 66.9 µM
- TGI [17]: > 100 µM
- TGI [18]: > 100 µM
- TGI [19]: 11 µM
- TGI [20]: 5.05 µM
- TGI [21]: 6.85 µM
- TGI [22]: 4.7 µM
- TGI [23]: 46 µM
- TGI [24]: > 100 µM
- TGI [25]: 68.4 µM
- TGI [26]: > 100 µM
- TGI [27]: > 100 µM
- TGI [28]: > 100 µM
- TGI [29]: 11.2 µM
- TGI [30]: 5.26 µM
- TGI [31]: > 100 µM
- TGI [59]: 10.5 µM
- TGI [32]: > 100 µM
- TGI [33]: 6.13 µM
- TGI [34]: 5.73 µM
- TGI [35]: 7.9 µM
- TGI [36]: 61.2 µM
- TGI [37]: > 100 µM
- TGI [38]: 38.4 µM
- TGI [39]: > 100 µM
- TGI [40]: 18.2 µM
- TGI [41]: 23.5 µM
- TGI [42]: 18.7 µM
- TGI [44]: > 100 µM
- TGI [45]: 58 µM
- TGI [46]: 18.1 µM
- TGI [47]: 15.4 µM
- TGI [48]: 6.96 µM
- TGI [49]: 26 µM
- TGI [50]: > 100 µM
- TGI [51]: 6.62 µM
- TGI [52]: 6.26 µM
- TGI [53]: 11.3 µM
- TGI [54]: 32.2 µM

SMILES: CCC(C)C(NC(=O)C(NC(=O)C(CC(N)=O)NC(=O)CN)C(C)O)C(=O)NC(C(=O)NC(C)C(=O)NC(C(=O)NC(CCC(=O)O)C(=O)NC(CC(C)C)C(=O)NC(CC(=O)O)C(=O)NC(C(=O)NC(Cc1ccc(O)cc1)C(=O)N1CCCC1C(=O)O)C(C)O)C(C)C)C(C)C (stereo unspecified) (H-GNTIVAVELDTYP-OH; configuration not given here)
- TGI [1]: > 50 µM
- TGI [2]: > 50 µM
- TGI [3]: > 50 µM
- TGI [4]: > 50 µM
- TGI [5]: > 50 µM
- TGI [6]: > 50 µM
- TGI [7]: > 50 µM
- TGI [55]: > 50 µM
- TGI [8]: > 50 µM
- TGI [56]: > 50 µM
- TGI [9]: > 50 µM
- TGI [10]: > 50 µM
- TGI [11]: > 50 µM
- TGI [12]: > 50 µM
- TGI [57]: > 50 µM
- TGI [13]: > 50 µM
- TGI [14]: > 50 µM
- TGI [15]: > 50 µM
- TGI [16]: > 50 µM
- TGI [17]: > 50 µM
- TGI [18]: > 50 µM
- TGI [19]: > 50 µM
- TGI [20]: > 50 µM
- TGI [21]: > 50 µM
- TGI [22]: > 50 µM
- TGI [23]: > 50 µM
- TGI [24]: > 50 µM
- TGI [25]: > 50 µM
- TGI [26]: > 50 µM
- TGI [27]: > 50 µM
- TGI [28]: > 50 µM
- TGI [29]: > 50 µM
- TGI [30]: > 50 µM
- TGI [31]: > 50 µM
- TGI [58]: > 50 µM
- TGI [59]: > 50 µM
- TGI [32]: > 50 µM
- TGI [33]: > 50 µM
- TGI [34]: > 50 µM
- TGI [35]: > 50 µM
- TGI [36]: > 50 µM
- TGI [37]: > 50 µM
- TGI [38]: > 50 µM
- TGI [39]: > 50 µM
- TGI [40]: > 50 µM
- TGI [41]: > 50 µM
- TGI [42]: > 50 µM
- TGI [43]: > 50 µM
- TGI [44]: > 50 µM
- TGI [45]: > 50 µM
- TGI [46]: > 50 µM
- TGI [47]: > 50 µM
- TGI [48]: > 50 µM
- TGI [49]: > 50 µM
- TGI [50]: > 50 µM
- TGI [51]: > 50 µM
- TGI [53]: > 50 µM
- TGI [54]: > 50 µM
